pEC50, pKd: −log10 of the molar value.
How the values were obtained:
RXRΓ = target: T1, RXRΓ (Mus musculus, UniProt P28705); experiment: Holoreceptor transactivation assay, RXRΓ; format: cell-based; conditions: for pEC50: CV1 cells, luciferase reporter, 36 hours incubation; for Transactivation Assay Afficacy (% of RA activity) RXRΓ: relative to all trans retinoic acid
T1 construct: expressed in transfected cells; host or cells: CV1 cells
T1 sequence (P28705 1-463): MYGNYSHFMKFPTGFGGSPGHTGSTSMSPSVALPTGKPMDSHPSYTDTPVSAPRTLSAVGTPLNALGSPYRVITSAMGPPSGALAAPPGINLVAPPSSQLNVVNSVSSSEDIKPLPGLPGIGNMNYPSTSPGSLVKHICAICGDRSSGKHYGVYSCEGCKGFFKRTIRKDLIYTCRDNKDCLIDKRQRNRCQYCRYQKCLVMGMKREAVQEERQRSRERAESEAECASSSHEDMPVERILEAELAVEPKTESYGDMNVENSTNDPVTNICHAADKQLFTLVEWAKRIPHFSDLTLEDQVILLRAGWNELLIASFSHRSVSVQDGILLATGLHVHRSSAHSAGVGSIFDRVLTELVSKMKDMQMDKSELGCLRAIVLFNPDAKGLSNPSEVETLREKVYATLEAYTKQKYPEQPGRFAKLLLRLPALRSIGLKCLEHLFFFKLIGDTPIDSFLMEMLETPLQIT
Protocol: (§1) A description of the holoreceptor transactivation assay is also provided below.
(§2) (8). […] (8, 9). […] A β-galactosidase (50 ng) expression vector was used as an internal control in the transfections to normalize for variations in transfection efficiency. The cells were transfected in triplicate for 6 hours, followed by incubation with retinoids for 36 hours, and the extracts were assayed for luciferase and β-galactosidase activities. The detailed experimental procedure for holoreceptor transactivations has been described in Heyman et al. above, and Allegretto et al. cited above. […] The results of ligand binding assay are expressed in KD50 numbers.

RARα = target: T2, RARα (Homo sapiens, UniProt P10276); experiment: Holoreceptor transactivation assay, RARα; format: cell-based; conditions: for pEC50: CV1 cells, luciferase reporter, 36 hours incubation; for Transactivation Assay Afficacy (% of RA activity) RARα: relative to all trans retinoic acid
T2 construct: expressed in transfected cells; host or cells: CV1 cells
T2 sequence (P10276 1-462): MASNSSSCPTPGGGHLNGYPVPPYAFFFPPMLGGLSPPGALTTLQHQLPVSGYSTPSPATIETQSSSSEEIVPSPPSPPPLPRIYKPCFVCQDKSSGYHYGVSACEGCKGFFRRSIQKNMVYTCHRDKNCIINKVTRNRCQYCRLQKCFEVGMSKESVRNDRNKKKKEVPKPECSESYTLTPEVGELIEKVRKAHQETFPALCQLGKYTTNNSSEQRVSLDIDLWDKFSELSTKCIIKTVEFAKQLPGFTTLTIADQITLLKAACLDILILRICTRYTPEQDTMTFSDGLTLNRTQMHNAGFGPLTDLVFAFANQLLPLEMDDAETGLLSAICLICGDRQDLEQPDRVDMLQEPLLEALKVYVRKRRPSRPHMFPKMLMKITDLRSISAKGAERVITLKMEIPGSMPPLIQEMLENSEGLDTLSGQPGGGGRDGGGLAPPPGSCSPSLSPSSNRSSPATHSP
Protocol: as §1, §2

RXRα [1] = target: T3, RXRα (Homo sapiens, UniProt P19793); experiment: Ligand binding assay, RXRα; conditions: read-out: Ligand Binding Assay KD50 RXRα
T3 construct: expressed in transfected cells; host or cells: CV1 cells
T3 sequence (P19793 1-462): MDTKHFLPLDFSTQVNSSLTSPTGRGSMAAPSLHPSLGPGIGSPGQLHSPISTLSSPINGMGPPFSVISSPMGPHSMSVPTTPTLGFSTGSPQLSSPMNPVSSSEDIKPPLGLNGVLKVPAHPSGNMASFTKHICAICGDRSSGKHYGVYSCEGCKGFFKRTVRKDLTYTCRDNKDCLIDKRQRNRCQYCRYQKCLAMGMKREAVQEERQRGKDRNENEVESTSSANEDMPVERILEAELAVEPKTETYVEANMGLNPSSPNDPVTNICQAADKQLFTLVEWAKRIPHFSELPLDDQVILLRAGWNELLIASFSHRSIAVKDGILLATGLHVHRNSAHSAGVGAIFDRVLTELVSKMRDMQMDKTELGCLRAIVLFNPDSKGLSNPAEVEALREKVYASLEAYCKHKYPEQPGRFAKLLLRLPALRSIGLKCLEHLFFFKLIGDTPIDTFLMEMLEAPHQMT
Source text: (§3) A holoreceptor transactivation assay and a ligand binding assay which measure the agonist like activity of the compounds of the invention, or their ability to bind to the several retinoid receptor sub-types, respectively, are described in published PCT Application No. WO WO93/11755 (particularly on pages 30-33 and 37-41) published on Jun. 24, 1993, the specification of which is also incorporated herein by reference. A description of the holoreceptor transactivation assay is also provided below.
CV1 cells (5,000 cells/well) were transfected with an RAR reporter plasmid ▴MTV-TREp-LUC (50 ng) along with one of the RAR expression vectors (10 ng) in an automated 96-well format by the calcium phosphate procedure of Heyman et al. Cell 68, 397-406. (8). For RXR transactivation assays, an RXR-responsive reporter plasmid CRBP II-TK-LUC (50 ng) along with one of the RXR expression vectors (10 ng) was used substantially as described by Heyman et al. above, and Allegretto et al. J. Biol. Chem. 268, 26625-26633. (8, 9). RXR-reporter contained DRI elements from human CRBP II promoter (see Mangelsdorf et al. The Retinoids: Biology, Chemistry and Medicine, pp 319-349, Raven Press Ltd., New York and Heyman et al., cited above) (1, 8). A β-galactosidase (50 ng) expression vector was used as an internal control in the transfections to normalize for variations in transfection efficiency. The cells were transfected in triplicate for 6 hours, followed by incubation with retinoids for 36 hours, and the extracts were assayed for luciferase and β-galactosidase activities. The detailed experimental procedure for holoreceptor transactivations has been described in Heyman et al. above, and Allegretto et al. cited above. The results obtained in this assay in connection with examplary compounds in accordance with the present invention are expressed in EC50 numbers, as they are also in the chimeric receptor transactivation assay. […]

RXRβ = target: T4, RXRβ (Mus musculus, UniProt P28704); experiment: Holoreceptor transactivation assay, RXRβ; format: cell-based; conditions: relative to all trans retinoic acid; read-out: Transactivation Assay Afficacy (% of RA activity) RXRβ
T4 sequence (P28704 1-520): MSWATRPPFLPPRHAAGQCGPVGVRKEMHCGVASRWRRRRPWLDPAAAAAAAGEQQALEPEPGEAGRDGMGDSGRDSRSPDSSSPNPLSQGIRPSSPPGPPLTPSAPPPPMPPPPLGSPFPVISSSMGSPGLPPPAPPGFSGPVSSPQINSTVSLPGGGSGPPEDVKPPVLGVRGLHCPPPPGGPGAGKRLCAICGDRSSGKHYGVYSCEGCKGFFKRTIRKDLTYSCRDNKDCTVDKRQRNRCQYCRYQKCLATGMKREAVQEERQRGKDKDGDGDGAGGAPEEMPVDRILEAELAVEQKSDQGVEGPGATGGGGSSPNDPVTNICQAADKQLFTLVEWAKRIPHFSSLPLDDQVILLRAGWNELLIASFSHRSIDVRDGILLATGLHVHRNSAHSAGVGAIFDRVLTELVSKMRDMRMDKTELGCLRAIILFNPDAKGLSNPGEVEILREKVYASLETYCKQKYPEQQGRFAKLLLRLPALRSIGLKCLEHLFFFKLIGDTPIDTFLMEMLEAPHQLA
Protocol: as §1, §2

RARΓ = target: T5, RARΓ (Homo sapiens, UniProt P13631); experiment: Holoreceptor transactivation assay, RARΓ; format: cell-based; conditions: for pEC50: CV1 cells, luciferase reporter, 36 hours incubation; for Transactivation Assay Afficacy (% of RA activity) RARΓ: relative to all trans retinoic acid
T5 construct: expressed in transfected cells; host or cells: CV1 cells
T5 sequence (P13631 1-454): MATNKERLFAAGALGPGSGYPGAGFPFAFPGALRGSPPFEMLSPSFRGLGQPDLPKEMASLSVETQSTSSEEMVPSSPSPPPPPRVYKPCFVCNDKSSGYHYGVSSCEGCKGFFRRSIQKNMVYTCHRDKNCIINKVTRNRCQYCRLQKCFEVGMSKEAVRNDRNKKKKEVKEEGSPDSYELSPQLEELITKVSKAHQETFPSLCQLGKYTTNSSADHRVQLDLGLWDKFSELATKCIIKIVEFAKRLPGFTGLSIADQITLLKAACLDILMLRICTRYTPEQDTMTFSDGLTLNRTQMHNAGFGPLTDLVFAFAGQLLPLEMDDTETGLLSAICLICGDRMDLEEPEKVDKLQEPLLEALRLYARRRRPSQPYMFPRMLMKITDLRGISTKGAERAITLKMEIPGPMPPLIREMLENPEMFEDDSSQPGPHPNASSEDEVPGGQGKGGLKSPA
Protocol: as §1, §2

RXRα [2] = target: T3, RXRα; experiment: Holoreceptor transactivation assay, RXRα; format: cell-based; conditions: for pEC50: CV1 cells, luciferase reporter, 36 hours incubation; for Transactivation Assay Afficacy (% of RA activity) RXRα: relative to all trans retinoic acid
Source text: as §3
CV1 cells (5,000 cells/well) were transfected with an RAR reporter plasmid ▴MTV-TREp-LUC (50 ng) along with one of the RAR expression vectors (10 ng) in an automated 96-well format by the calcium phosphate procedure of Heyman et al. Cell 68, 397-406. (8). For RXR transactivation assays, an RXR-responsive reporter plasmid CRBP II-TK-LUC (50 ng) along with one of the RXR expression vectors (10 ng) was used substantially as described by Heyman et al. above, and Allegretto et al. J. Biol. Chem. 268, 26625-26633. (8, 9). RXR-reporter contained DRI elements from human CRBP II promoter (see Mangelsdorf et al. The Retinoids: Biology, Chemistry and Medicine, pp 319-349, Raven Press Ltd., New York and Heyman et al., cited above) (1, 8). A β-galactosidase (50 ng) expression vector was used as an internal control in the transfections to normalize for variations in transfection efficiency. The cells were transfected in triplicate for 6 hours, followed by incubation with retinoids for 36 hours, and the extracts were assayed for luciferase and β-galactosidase activities. The detailed experimental procedure for holoreceptor transactivations has been described in Heyman et al. above, and Allegretto et al. cited above. The results obtained in this assay in connection with examplary compounds in accordance with the present invention are expressed in EC50 numbers, as they are also in the chimeric receptor transactivation assay. The Heyman et al. Cell 68, 397-406, Allegretto et al. J. Biol. Chem. 268, 26625-26633, and Mangelsdorf et al. The Retinoids: Biology, Chemistry and Medicine, pp 319-349, Raven Press Ltd., New York, are expressly incorporated herein by reference. The results of ligand binding assay are expressed in KD50 numbers.

RARβ = target: T6, RARβ (Homo sapiens, UniProt P10826); experiment: Holoreceptor transactivation assay, RARβ; format: cell-based; conditions: for pEC50: CV1 cells, luciferase reporter, 36 hours incubation; for Transactivation Assay Afficacy (% of RA activity) RARβ: relative to all trans retinoic acid
T6 construct: expressed in transfected cells; host or cells: CV1 cells
T6 sequence (P10826 1-455): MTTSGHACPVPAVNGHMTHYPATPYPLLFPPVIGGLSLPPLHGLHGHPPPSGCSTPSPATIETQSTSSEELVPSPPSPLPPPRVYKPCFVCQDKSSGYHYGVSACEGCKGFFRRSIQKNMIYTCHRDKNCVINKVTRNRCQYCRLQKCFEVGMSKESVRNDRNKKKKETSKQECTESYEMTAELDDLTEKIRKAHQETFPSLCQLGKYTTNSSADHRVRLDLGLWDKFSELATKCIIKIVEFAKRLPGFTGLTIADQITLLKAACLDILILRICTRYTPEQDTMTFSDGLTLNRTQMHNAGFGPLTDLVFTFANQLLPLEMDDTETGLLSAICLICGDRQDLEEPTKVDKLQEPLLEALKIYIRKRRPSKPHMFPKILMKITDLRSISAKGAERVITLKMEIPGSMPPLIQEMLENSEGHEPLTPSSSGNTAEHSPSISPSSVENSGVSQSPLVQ
Protocol: as §1, §2

SMILES | pEC50 (RXRΓ) | Transactivation Assay Afficacy (% of RA activity) RXRΓ (RXRΓ) | pEC50 (RARα) | Transactivation Assay Afficacy (% of RA activity) RARα (RARα) | pKd (RXRα [1]) | Emax (RXRβ) [%] | pEC50 (RARΓ) | Transactivation Assay Afficacy (% of RA activity) RARΓ (RARΓ) | pEC50 (RXRα [2]) | Transactivation Assay Afficacy (% of RA activity) RXRα (RXRα [2]) | pEC50 (RARβ) | Transactivation Assay Afficacy (% of RA activity) RARβ (RARβ)
CC(C=CC1CC1(C)c1cc2c(cc1C)C(C)(C)CCC2(C)C)=CC(=O)O (stereo not drawn) [Compound 13, 3,7-Dimethyl,6(RS),7(SR) methano-7-(3,5,5,8,8-pentamethyl-5,6,7,8-tetrahydronaphth-2-yl),2(E),4(E)-heptadienoic Acid] | 7.15 | 40.0 % of RA activity | < 6.00 | 0.0 % of RA activity | 7.15 | 72 | < 6.00 | 8.0 % of RA activity | 6.89 | 55.0 % of RA activity | < 6.00 | 3.0 % of RA activity
CC(C=CC1CC1(C)c1ccc2c(c1)C(C)(C)CCS2)=CC(=O)O (stereo not drawn) [Compound 17, 3,7-Dimethyl,6(RS),7(SR) methano-7-(4,4-dimethylthiochroman-6-yl) 2(E),4(E)-heptadienoic Acid] | 7.89 | 73 % of RA activity | 5.92 | 30 % of RA activity | 8.52 | 118 | 6.57 | 41 % of RA activity | 7.52 | 111 % of RA activity | 7.32 | 29 % of RA activity
CC(C=CC1CC1(C)c1ccc2c(c1)C(C)(C)CCO2)=CC(=O)O (stereo not drawn) [Compound 21, 3,7-Dimethyl,6(RS),7(SR) methano-7-(4,4-dimethyl-chroman-6-yl),2(E),4(E)-heptadienoic Acid] | 7.54 | 85.0 % of RA activity | < 6.00 | 4.0 % of RA activity | 8.30 | 93 | < 6.00 | 14.0 % of RA activity | 7.57 | 83.0 % of RA activity | 5.74 | 26.0 % of RA activity
CC(/C=C/c1ccccc1-c1ccc2c(c1)C(C)(C)CCC2(C)C)=C\C(=O)O [Compound 9, 3-Methyl-5-[2-(5,5,8,8,-tetramethyl-5,6,7,8-tetrahydronaphth-2-yl)phenyl]pent-2(E),4(E)-dienoic Acid] | 6.62 | 50.0 % of RA activity | < 6.00 | 2.0 % of RA activity | – | 94 | < 6.00 | 8.0 % of RA activity | 6.54 | 59.0 % of RA activity | < 6.00 | 8.0 % of RA activity

Reference: patent publication US20020082419A1, “2,4-pentadienoic acid derivatives having retinoid-like biological activity” (Allergan Sales, Inc., priority 1995, published 2002)
